Molecules are shown by their SMILES. Structures can show the parent of a compound that is named as a salt.

Usually inhibition stands for the relative decrease from the control value, in per cent.

The first assay concerns the target T1, LmjIPCS (inositol phosphorylceramide synthase from L. major) (Leishmania major, UniProt E9AFX2).
T1 sequence (E9AFX2 1-338): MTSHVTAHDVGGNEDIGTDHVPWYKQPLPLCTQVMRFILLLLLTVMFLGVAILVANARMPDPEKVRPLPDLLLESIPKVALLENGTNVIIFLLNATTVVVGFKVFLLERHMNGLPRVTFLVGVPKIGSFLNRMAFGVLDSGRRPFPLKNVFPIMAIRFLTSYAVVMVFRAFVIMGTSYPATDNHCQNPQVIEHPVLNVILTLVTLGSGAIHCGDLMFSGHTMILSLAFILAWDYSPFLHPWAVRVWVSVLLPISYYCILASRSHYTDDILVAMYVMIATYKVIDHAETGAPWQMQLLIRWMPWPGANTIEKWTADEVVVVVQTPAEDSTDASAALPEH
The assay can be described thus: biochemical. Set-up: inhibition: dose or concentration left out as unconfirmed.
Conditions: not given
It counts as biochemical.
For `CCN1CCN(C(=O)N[C@@H](C(=O)N[C@@H]2C(=O)N3[C@@H]2SC(C)(C)[C@@H]3C(=O)O)c2ccccc2)C(=O)C1=O` [PIPERACILLIN], the “20mM inhibition LmjIPCS” value amounted to 60%.
Still for that read-out and setting: the value for `CCN1CCCC(OC(=O)C(c2ccccc2)c2ccccc2)C1` (stereo not shown) [PIPERIDOLATE] was 39%; that for `Nc1ccc(C(=O)[O-])cc1.[K+]` [POTASSIUM p-AMINOBENZOATE] was 40%.
Still for that read-out and setting: the value for `CCCNC(C)C(=O)Nc1ccccc1C` (stereo not shown) [PRILOCAINE] was 34%.
The same measure, in the same setting: the value for `COc1cc(NC(C)CCCN)c2ncccc2c1` (stereo not shown) [PRIMAQUINE] was 69%.
For `COC(=O)[C@]1(C)CC[C@]2(C)CC[C@]3(C)C4=CC=C5C(=CC(=O)C(O)=C5C)[C@]4(C)CC[C@@]3(C)[C@@H]2C1` [PRISTIMERIN], the “20mM inhibition LmjIPCS” value was 62%.

Staying with this assay, now noted: NINDS set screen, single concentration printed as 20mM.
For `O=C1C[C@@H](c2ccccc2)Oc2cc(O)cc(O)c21` [PINOCEMBRIN], the “20mM inhibition LmjIPCS” value was found to be 35%.
Still for that read-out and setting: the value for `CC(=O)[C@H]1CC[C@H]2[C@@H]3CC=C4C[C@@H](O)CC[C@]4(C)[C@H]3CC[C@]12C` [PREGNENOLONE] was 52%; that for `CCCC(C(=O)OCCN(CC)CC)(c1ccccc1)c1ccccc1` [PROADIFEN] was 36%.

The same assay, now with this note: NINDS set screen; read-out: inhibition LmjIPCS.
Take `CC[C@@H]1C(=O)OC[C@@H]1Cc1cncn1C` [PILOCARPINE]: the inhibition is -4.6%.
Still for that read-out and setting: the figure for `COc1c(OC)c2occc2c2oc(=O)ccc12` [PIMPINELLIN] is 18%; for `OC(CCN1CCCCC1)(c1ccccc1)c1ccccc1` [PRIDINOL] it is 27%; for `CCCN(CCC)S(=O)(=O)c1ccc(C(=O)O)cc1` [PROBENECID] it is 13%.

Staying with this assay, now noted: read-out: 20mM inhibition LmjIPCS.
As for `CC(C)NCC(O)COc1cccc2[nH]ccc12` (stereo not shown) [PINDOLOL], the inhibition at 20000 µM is 16%.
Same read-out and setting: the figure for `C1CNCCN1` [PIPERAZINE] is 5.42%.
As for `O=C(/C=C/C=C/c1ccc2c(c1)OCO2)N1CCCCC1` [PIPERINE], the inhibition at 20000 µM was determined as 13%.
For `COc1cc([C@@H]2c3cc4c(cc3[C@H](O)[C@H]3COC(=O)[C@H]23)OCO4)cc(OC)c1OC` [PODOFILOX], the inhibition at 20000 µM was 21%.
Still for that read-out and setting: the figure for `C[n+]1ccccc1/C=N/O` [PRALIDOXIME MESYLATE] is 9%; for `CC(=O)OCC(=O)[C@@]1(O)CC[C@H]2[C@@H]3CCC4=CC(=O)C=C[C@]4(C)[C@H]3[C@@H](O)C[C@@]21C` [PREDNISOLONE ACETATE] it is 25%; for `CC(C)C[C@H](CN)CC(=O)O` [PREGABALIN] it is 12%.
The same measure, in the same setting: the value for `CCC1(c2ccccc2)C(=O)NCNC1=O` [PRIMIDONE] was -1.2%; that for `CC(C)(Sc1cc(C(C)(C)C)c(O)c(C(C)(C)C)c1)Sc1cc(C(C)(C)C)c(O)c(C(C)(C)C)c1` [PROBUCOL] was 25%.
Same read-out and setting: the value for `OC(CCN1CCCC1)(c1ccccc1)C1CCCCC1` (stereo not shown) [PROCYCLIDINE] was 22%.

The assay is the same for the next values; noted with them: read-out: inhibition LmjIPCS.
In the case of `CCc1ccc(CCOc2ccc(CC3SC(=O)NC3=O)cc2)nc1` (stereo not shown) [PIOGLITAZONE], the inhibition is 9%.
The same measure, in the same setting: the figure for `CCn1cc(C(=O)O)c(=O)c2cnc(N3CCCC3)nc21` [PIROMIDIC ACID] is 8.53%; for `CN1C(C(=O)Nc2ccccn2)=C(O)c2ccccc2S1(=O)=O` [PIROXICAM] it is 15%; for `CC[C@H](C)C(=O)O[C@H]1C[C@H](O)C=C2C=C[C@H](C)[C@H](CC[C@@H](O)C[C@@H](O)CC(=O)O)[C@H]21` [PRAVASTATIN] it is 28%.
With `O=C(C1CCCCC1)N1CC(=O)N2CCc3ccccc3C2C1` (stereo not shown) [PRAZIQUANTEL], the inhibition was -3.78%.
Still for that read-out and setting: the value for `C[C@]12C=CC(=O)C=C1CC[C@@H]1[C@@H]2[C@@H](O)C[C@@]2(C)[C@H]1CC[C@]2(O)C(=O)CO` [PREDNISOLONE] was 21%; that for `C[C@]12C=CC(=O)C=C1CC[C@@H]1[C@@H]2C(=O)C[C@@]2(C)[C@H]1CC[C@]2(O)C(=O)CO` [PREDNISONE] was -4%; that for `CCN(CC)CCNC(=O)c1ccc(N)cc1` [PROCAINAMIDE] was 19%.
